Experimental data from patent US20220280663A1, “[…] TARGETED […] ACTIVE SUBSTANCE OR LABEL […] SYSTEM” (CELLIS AG, priority 2016, published 2022).

Experiments:
[1] = test system: CD45^+ leukocyte cell; assay: Uptake and storage of iron binding proteins by CD45+ leukocyte cells; assay type: cell-based; details: incubation 1-4 hours in protein solution (ferritin 0.8 mg/ml; haemoglobin, transferrin 0.1 mg/ml), standard culture conditions
Method: (§1) Obtained cells are incubated in ferritin solution for a time and at the concentration sufficient to ensure proper ratio of ferritin/cell for their full load and also to ensure proper drug content to obtain therapeutic effect or contrast for proper imaging. The time and concentration may vary depending on the number of molecules encapsulated/adsorbed into the ferritin cage, status of cell activation, condition and number of their intended administration.
For example, to ensure proper load with ferritins, cells are incubated for 1-4 hours in ferritin solution 0.8 mg/ml in standard culture conditions. The frame of ferritin concentration may vary at least between 0.01 and 4 mg/ml as well as incubation time (5 min-6 hours or more). Adjusting time and concentration of ferritin load to cells, the influence of ferritin and treatment conditions on cell viability should be minded.
as §1, with “haemoglobin” for “ferritin”, “haemoglobin/cell” for “ferritin/cell”, “linked with” for “encapsulated/adsorbed into”, “haemoglobin molecule,” for “ferritin cage,”, “administration. […]” for “administration.”

[2] = test system: cancer cells; assay: Transfer of iron binding proteins from loaded leukocytes to co-cultured cancer cells; assay type: cell-based; details: for transport to cancer cells from granulocytes: loaded granulocytes (FIG. 15); for transport to cancer cells from lymphocytes: loaded lymphocytes (FIG. 16); for transport to cancer cells from macrophages: loaded macrophages, mouse mammary, colon, canine mammary, human breast, pancreatic, bladder cancer cells; for transport to cancer cells from monocytes: loaded monocytes (FIG. 14)
Excerpt: However, in case of cancer cells the ratio of both cell types is crucial. The more macrophages the better and faster the transport is. The most efficient transfer to the cancer cells was observed when ratio of macrophages to cancer cells was 1:1 or more.
This transfer of compounds conjugated with anticancer drugs made the effect inducing apoptosis in cancer cells (FIG. 6, 13).
However, the ratio of both cell types is important. The more monocytes the better and faster the transport is. The most efficient transfer to the cancer cells was observed when ratio of monocytes to cancer cells was 1:1 or more.
However, the ratio of both cell types is crucial. The more granulocytes the better and faster the transport is. The most efficient transfer to the cancer cells was observed when ratio of granulocytes to cancer cells was 1:1 or more.
However, the ratio of both cell types is crucial. The more lymphocytes the better and faster the transport is. The most efficient transfer to the cancer cells was observed when ratio of lymphocytes to cancer cells was 1:1 or more.

Substance | uptake of iron binding protein by cells [1] | transport to cancer cells from granulocytes [2] | transport to cancer cells from lymphocytes [2] | transport to cancer cells from macrophages [2] | transport to cancer cells from monocytes [2]
haemoglobins: human haemoglobin prepared from fresh red cells (SEQ ID NO: 18 or 22) | very easily uptake | very easily transport | very easily transport | very easily transport | very easily transport
transferrins: human holo-transferrin purified from serum (SEQ ID NO: 28) | very easily uptake | very easily transport | very easily transport | very easily transport | very easily transport
